Assay results published in patent US6291194A, “Assay for determination of androgenic or anti-androgenic activity of a serum sample or a test compound” (priority 2000, dated 2001).

Experiments:
androgen receptor (AR) = target: T1, androgen receptor (AR) (Homo sapiens, UniProt P10275); test: COS-1 bioassay, inhibition by nonsteroidal antiandrogens of testosterone-induced AR LBD / N-terminal interaction; assay type: cell-based
T1 construct: The LBD of human AR (containing amino acids 657-919); expressed in transfected cells; host or cells: COS-1 cells (ATCC CRL1650)

[1] = cited from earlier work

T1 sequence (P10275 with tags, fused parts or gaps limits assumed): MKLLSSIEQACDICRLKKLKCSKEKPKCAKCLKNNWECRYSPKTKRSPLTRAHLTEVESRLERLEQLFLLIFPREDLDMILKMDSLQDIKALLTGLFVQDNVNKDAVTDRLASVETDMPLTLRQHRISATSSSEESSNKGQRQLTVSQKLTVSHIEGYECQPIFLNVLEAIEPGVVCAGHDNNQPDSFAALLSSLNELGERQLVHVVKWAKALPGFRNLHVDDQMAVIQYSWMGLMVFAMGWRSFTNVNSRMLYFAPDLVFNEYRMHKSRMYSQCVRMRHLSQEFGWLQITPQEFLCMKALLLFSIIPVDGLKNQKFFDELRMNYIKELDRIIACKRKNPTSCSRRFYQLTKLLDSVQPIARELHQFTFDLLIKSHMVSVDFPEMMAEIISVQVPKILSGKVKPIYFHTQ

Compound | effect on interaction between AR termini / relative luciferase activity (in words) (androgen receptor (AR)) | relative luciferase activity as % of activity with testosterone-containing FCS without antiandrogen (androgen receptor (AR); 100 times molar amount of testosterone (10 nmol/L testosterone in FCS)) | free fraction of total testosterone in serum [1]
CC(C)(O)C(=O)Nc1ccc([N+](=O)[O-])c(C(F)(F)F)c1 [hydroxyflutamide, 4-hydroxy-α,α,α-trifluoro-2-methyl-4'-nitro-m-propionotoluidide] | suppressed relative luciferase activity | ~ 5% | 
C[C@]12CC[C@H]3[C@@H](CCC4=CC(=O)CC[C@@]43C)[C@@H]1CC[C@@H]2O [testosterone, Testosterone] |  |  | 2-3%
